Like-named read-outs stand apart in the source and are kept apart here.
What was measured:
[1] = molecular target: Rabbit Reticulocyte Lysate (eukaryotic protein synthesis); assay: Rabbit reticulocyte lysate luciferase assay (inhibition of eukaryotic protein synthesis); format: biochemical; conditions: read-out: Rabbit reticulocyte IC50 (μM/% inhib.)
In short: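 Percent inhibition calculated against water-only controls from luminescence; background set by lysate lacking RNA. Compounds, 8-point 2-fold titration, incubated 90 minutes at 30° C with nuclease-treated rabbit reticulocyte lysate programmed with luciferase control RNA plus complete amino acids.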

E. coli (Ec) = assay: Broth microdilution minimum inhibitory concentration (MIC), CLSI; format: cell-based; conditions: Escherichia coli, read-out: E. coli + bicarb MIC
In short: (§1)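 Bacteria grown at 35±2 °C to 0.5 McFarland turbidity were added at 5×10^4 CFU/well to triplicate two-fold compound series (8 dilutions). Media were cation-adjusted Mueller-Hinton broth alone or with sodium bicarbonate (6.25 or 25 mM final) or heat-inactivated human serum (0–50%), per modified CLSI method.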

P. aeruginosa (Pa) = assay: as above; format: cell-based; conditions: Pseudomonas aeruginosa, read-out: Pa MIC + bicarb
In short: as §1

E. faecalis (Ef) = assay: as above; format: cell-based; conditions: for MIC: Enterococcus faecalis, read-out: Ef + bicarb MIC
In short: as §1

A. baumannn (Ab) = assay: as above; format: cell-based; conditions: read-out: Ab + bicarb MIC
In short: as §1

S. aureus (Sa) = assay: as above; format: cell-based; conditions: Staphylococcus aureus, read-out: Sa + bicarb MIC
In short: as §1

[2] = tested on: E. coli S30 extract (bacterial protein synthesis); assay: E. coli S30 extract coupled transcription-translation luciferase assay (inhibition of bacterial protein synthesis); format: biochemical; conditions: read-out: S30 IC50 (μM/% inhib.)
In short: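 Luciferase luminescence quantified inhibition of protein synthesis relative to water controls, with no-DNA reactions giving background. Compounds in 2-fold serial dilution (8 levels) were incubated 1 hour at 37 °C with E. coli S30 extract, amino acids and pBESTluc plasmid, then chilled to stop.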

[3] = growth medium with sodium bicarbonate
[4] = A. baumannn, growth medium with sodium bicarbonate
[5] = class by IC50 or % inhibition @ 1 μM
[6] = growth medium supplemented with sodium bicarbonate

| SMILES | IC50 ([1]; % inhibition @ 1 μM) [µM] | MIC (E. coli (Ec); [3]) [µg/mL] | MIC (P. aeruginosa (Pa); [3]) [µg/mL] | MIC (E. faecalis (Ef); [3]) [µg/mL] | MIC (A. baumannn (Ab); [4]) [µg/mL] | MIC (S. aureus (Sa); [3]) [µg/mL] | IC50 ([2]; % inhibition @ 1 μM) [µM] | IC50 [1, 5] [µM] | MIC (E. coli (Ec); [6]) [µg/mL] | MIC (P. aeruginosa (Pa); [6]) [µg/mL] | MIC (E. faecalis (Ef); [6]) [µg/mL] | MIC (A. baumannn (Ab); Acinetobacter baumannii) [µg/mL] | MIC (S. aureus (Sa); [6]) [µg/mL] | IC50 [2, 5] [µM] | Ef + bicarb MIC (E. faecalis (Ef); [6]) |
| --- | --- | --- | --- | --- | --- | --- | --- | --- | --- | --- | --- | --- | --- | --- | --- |
| CN(Cc1ccc(-n2ccc(NC(=O)N3CCN(C(=O)C(C)(C)N)CC3)nc2=O)cc1)C12CCC(N)(CC1)C2 [Compound 164] | ≥ 1 | < 8 | > 32 | < 8 | 8 to 32 | < 8 | < 0.5 | – | – | – | – | – | – | – | – |
| CC(C)(N)C(=O)N1CCN(C(=O)Nc2ccn(-c3ccc(CNC45CCC(N)(CC4)C5)cc3)c(=O)n2)CC1 [Compound 168] | ≥ 1 | < 8 | > 32 | < 8 | > 32 | < 8 | < 0.5 | – | – | – | – | – | – | – | – |
| CC(C)(N)C(=O)N1CCN(C(=O)Nc2ccn(-c3ccc(CN4C[C@@H]5[C@H](C4)[C@H]5C(N)=O)cc3)c(=O)n2)CC1 [Compound 74] | – | – | – | – | – | – | – | ≥ 1 | 8 to 32 | > 32 | > 32 | > 32 | 8 to 32 | ≥ 1 | – |
| CCC(Cc1ccc(-n2ccc(NC(=O)N3CCN(C(=O)C(C)(C)N)CC3)nc2=O)cc1)N1C[C@@H]2[C@@H](CNC)[C@@H]2C1 (stereo partly drawn) [Compound 221] | ≥ 1 | < 8 | > 32 | < 8 | < 8 | < 8 | ≥ 1 | – | – | – | – | – | – | – | – |
| CNC[C@@H]1[C@H]2CN(C(C)Cc3ccc(-n4ccc(NC(=O)N5CCN(C(=O)C(C)(C)N)CC5)nc4=O)cc3)C[C@@H]12 (stereo partly drawn) [Compound 138] | – | – | – | – | – | – | – | ≥ 1 | < 8 | > 32 | 8 to 32 | > 32 | < 8 | 0.5 to 1 | – |
| CC(C)(N)C(=O)N1CCN(C(=O)Nc2ccn(-c3ccc(CCN4C5CCC4CC(N)C5)cc3)c(=O)n2)CC1 (stereo not drawn) [Compound 106] | – | – | – | – | – | – | – | ≥ 1 | < 8 | > 32 | – | > 32 | < 8 | ≥ 1 | ++ (An MIC value (μg/mL) that is 8 μg/mL or greater and less than 32 μg/mL) |
| C[C@@H]1CN(C(=O)Nc2ccn(-c3ccc(CN4C[C@@H]5[C@@H](N)[C@@H]5C4)cc3)c(=O)n2)CCN1C(=O)[C@@](C)(N)CO [Compound 45] | – | – | – | – | – | – | – | ≥ 1 | < 8 | 8 to 32 | < 8 | > 32 | < 8 | < 0.5 | – |
| CC(Cc1ccc(-n2ccc(NC(=O)N3CCN(C(=O)C(C)(C)N)CC3)nc2=O)cc1)N(C)C12CC(CN)(C1)C2 (stereo not drawn) [Compound 200] | ≥ 1 | < 8 | > 32 | > 32 | > 32 | < 8 | ≥ 1 | – | – | – | – | – | – | – | – |
| CCCC(Cc1ccc(-n2ccc(NC(=O)N3CCN(C(=O)C(C)(C)N)CC3)nc2=O)cc1)N1C[C@@H]2[C@@H](CN)[C@@H]2C1 (stereo partly drawn) [Compound 150] | – | – | – | – | – | – | – | ≥ 1 | < 8 | < 8 | < 8 | < 8 | < 8 | < 0.5 | – |
| CC(C)(N)C(=O)N1CCN(C(=O)Nc2ccn(-c3cccc(CCN4CC5CC5(CN)C4)c3)c(=O)n2)CC1 (stereo not drawn) [Compound 142] | – | – | – | – | – | – | – | ≥ 1 | < 8 | > 32 | 8 to 32 | > 32 | 8 to 32 | 0.5 to 1 | – |
| CC(C)(N)C(=O)N1CCN(C(=O)Nc2ccn(-c3cccc(CCN4C[C@H]5C[C@@]5(N)C4)c3)c(=O)n2)CC1 [Compound 144] | – | – | – | – | – | – | – | ≥ 1 | 8 to 32 | > 32 | > 32 | > 32 | > 32 | ≥ 1 | – |
| CN(Cc1ccc(-n2ccc(NC(=O)N3CCN(C(=O)C(C)(C)N)CC3)nc2=O)cc1)C12CC(N)(C1)C2 [Compound 169] | ≥ 1 | 8 to 32 | > 32 | > 32 | > 32 | > 32 | ≥ 1 | – | – | – | – | – | – | – | – |
| CC(C)(N)C(=O)N1CCN(C(=O)Nc2ccn(-c3ccc(CCN4CC5CC(N)C5C4)cc3)c(=O)n2)CC1 (stereo not drawn) [Compound 96] | – | – | – | – | – | – | – | ≥ 1 | < 8 | 8 to 32 | < 8 | > 32 | < 8 | < 0.5 | – |
| CC(Cc1ccc(-n2ccc(NC(=O)N3CCN(C(=O)C(C)(C)N)CC3)nc2=O)cc1)N1CC2CCCC(N)C2C1 (stereo not drawn) [Compound 216] | ≥ 1 | < 8 | > 32 | < 8 | > 32 | < 8 | < 0.5 | – | – | – | – | – | – | – | – |
| C[C@@](N)(CO)C(=O)N1CCN(C(=O)Nc2ccn(-c3ccc(CN4C[C@@H]5[C@@H](N)[C@@H]5C4)cc3)c(=O)n2)CC1 [Compound 40] | – | – | – | – | – | – | – | ≥ 1 | < 8 | > 32 | < 8 | > 32 | < 8 | < 0.5 | – |
| NC[C@@H]1[C@H]2CN(CCc3ccc(-n4ccc(NC(=O)N5CCC6(CCNC6)C5)nc4=O)cc3)C[C@@H]12 (stereo partly drawn) [Compound 145] | – | – | – | – | – | – | – | ≥ 1 | < 8 | > 32 | > 32 | > 32 | 8 to 32 | ≥ 1 | – |
| NC1CCC12CCN(C(=O)Nc1ccn(-c3ccc(CN4C[C@@H]5[C@@H](N)[C@@H]5C4)cc3)c(=O)n1)CC2 (stereo partly drawn) [Compound 64] | – | – | – | – | – | – | – | ≥ 1 | 8 to 32 | > 32 | 8 to 32 | > 32 | 8 to 32 | ≥ 1 | – |
| CC(C)(N)C(=O)N1CCN(C(=O)Nc2ccn(-c3ccc(CCN4CC5(CNC5)C4)cc3)c(=O)n2)CC1 [Compound 160] | – | – | – | – | – | – | – | ≥ 1 | < 8 | > 32 | > 32 | > 32 | > 32 | ≥ 1 | – |
| CC(C)(N)C(=O)N1CCN(C(=O)Nc2ccn(-c3ccc(CCCN4CCC5(CC4)CC(N)C5)cc3)c(=O)n2)CC1 [Compound 180] | ≥ 1 | < 8 | > 32 | > 32 | > 32 | 8 to 32 | ≥ 1 | – | – | – | – | – | – | – | – |
| CC(C)(N)C(=O)N1CCN(C(=O)Nc2ccn(-c3ccc(CCCN4CC5CC5(CN)C4)cc3)c(=O)n2)CC1 (stereo not drawn) [Compound 184] | ≥ 1 | < 8 | > 32 | 8 to 32 | > 32 | < 8 | ≥ 1 | – | – | – | – | – | – | – | – |
| NCC1CC2(CCN(C(=O)Nc3ccn(-c4ccc(CN5C[C@@H]6[C@@H](N)[C@@H]6C5)cc4)c(=O)n3)CC2)C1 [Compound 252] | ≥ 1 | < 8 | > 32 | > 32 | > 32 | < 8 | 0.5 to 1 | – | – | – | – | – | – | – | – |
| N[C@@H]1[C@H]2CN(Cc3ccc(-n4ccc(NC(=O)N5CCC6(CCNCC6)CC5)nc4=O)cc3)C[C@@H]12 [Compound 62] | – | – | – | – | – | – | – | ≥ 1 | < 8 | > 32 | 8 to 32 | > 32 | < 8 | ≥ 1 | – |
| CC(C)(N)C(=O)N1CCN(C(=O)Nc2ccn(-c3ccc(C[C@H](N)C(=O)N4C[C@@H]5[C@@H](CN)[C@@H]5C4)cc3)c(=O)n2)CC1 [Compound 182] | ≥ 1 | > 32 | > 32 | > 32 | > 32 | > 32 | ≥ 1 | – | – | – | – | – | – | – | – |
| CC(Cc1ccc(-n2ccc(NC(=O)N3CCN(C(=O)C(C)(C)N)CC3)nc2=O)cc1)N(CCO)C1CC2(CC(N)C2)C1 (stereo not drawn) [Compound 197] | ≥ 1 | < 8 | > 32 | 8 to 32 | > 32 | < 8 | ≥ 1 | – | – | – | – | – | – | – | – |
| CC(C)(N)C(=O)N1CCN(C(=O)Nc2ccn(-c3ccc(C[C@H](N)NN4C[C@@H]5[C@@H](N)[C@@H]5C4)cc3)c(=O)n2)CC1 [Compound 178] | ≥ 1 | > 32 | > 32 | > 32 | > 32 | > 32 | ≥ 1 | – | – | – | – | – | – | – | – |
| Cc1cc(-n2ccc(NC(=O)N3CCN(C(=O)C(C)(C)N)CC3)nc2=O)ccc1CCN1CCC2CC2(N)C1 (stereo not drawn) [Compound 101] | – | – | – | – | – | – | – | ≥ 1 | < 8 | > 32 | < 8 | 8 to 32 | < 8 | < 0.5 | – |
| CC(Cc1ccc(-n2ccc(NC(=O)N3CCN(C(=O)C(C)(C)N)CC3)nc2=O)cc1)N(C)C12CC(N)(C1)C2 (stereo not drawn) [Compound 199] | ≥ 1 | 8 to 32 | > 32 | > 32 | > 32 | 8 to 32 | ≥ 1 | – | – | – | – | – | – | – | – |

Reference: patent US12692253B2, “Antimicrobial compounds and methods” (Curza Global, LLC, priority 2019, dated 2026)
